Where two headings read alike, the source gives them in different places.
Assays:
HER2 = conditions: read-out: half maximal inhibitory concentration, HER2; ref Li et al. [2008]; cited from earlier work
[1] = Afatinib plasma pharmacokinetics (HPLC-MS/MS); format: in vivo, human; conditions: for AUC / Tmax: human, plasma, po; for AUC: read-out: AUCtau,ss, geometric mean; for Tmax: read-out: tmax,ss, median
[2] = tested on: HER2-positive metastatic breast cancer (MBC); design: method as in Lin et al. [2012]; conditions: afatinib monotherapy 50 mg/day, heavily pre-treated HER2-positive MBC after trastuzumab; ref Lin et al. [2012]; cited from earlier work
[3] = Letrozole plasma pharmacokinetics (HPLC-MS/MS); format: in vivo, human
Experimental: For quantification of drug plasma concentrations, 5 mL of venous blood was collected. […] Letrozole plasma concentrations were determined by a validated HPLC–MS/MS assay at Nuvisan Pharma Services GmbH & Co. KG, Neu-Ulm, Germany.

ErbB4 = conditions: read-out: half maximal inhibitory concentration, ErbB4; ref Li et al. [2008]; cited from earlier work
ErbB3 = tested on: ErbB3; design: method as in Li et al. [2008]; conditions: ref Li et al. [2008]; cited from earlier work
ER/PgR/HER2-positive MBC = tested on: ER/PgR/HER2-positive MBC; design: method as in Kaufman et al. [2009]; conditions: N 207, ref Kaufman et al. [2009]; cited from earlier work
ER/PgR-positive MBC = tested on: ER/PgR-positive MBC; design: method as in Huober et al. [2012]; conditions: ref Huober et al. [2012], cited from earlier work
[4] = tested on: ER/PgR-positive HER2-negative MBC; design: method as in Bachelot et al. [2012]; conditions: aromatase inhibitor-resistant, N 111; ref Bachelot et al. [2012]; cited from earlier work
[5] = Afatinib 30 mg multiple oral administrations with letrozole 2.5 mg, N 5
[6] = Afatinib 40 mg multiple oral administrations with letrozole 2.5 mg, N 4
[7] = ER/PgR-positive HER2-negative MBC, N 35

SMILES: CN(C)C/C=C/C(=O)Nc1cc2c(Nc3ccc(F)c(Cl)c3)ncnc2cc1O[C@H]1CCOC1 [Afatinib]
- IC50 (HER2): 14 nM
- Cpre,ss, 57, geometric mean ([1]; Afatinib 30 mg with letrozole 2.5 mg, pre-dose day 1 of cycle 3, N 8): 15.8 ng/mL
- Cpre,ss, 85, geometric mean ([1]; Afatinib 30 mg with letrozole 2.5 mg, pre-dose day 1 of cycle 4, N 5): 17.3 ng/mL
- Cpre,ss, 57, geometric mean ([1]; Afatinib 40 mg with letrozole 2.5 mg, pre-dose day 1 of cycle 3, N 5): 21.4 ng/mL
- Cpre,ss, 85, geometric mean ([1]; Afatinib 40 mg with letrozole 2.5 mg, pre-dose day 1 of cycle 4, N 4): 16.9 ng/mL
- AUC [1, 5]: 579 ng·h/mL
- Tmax [1, 5]: 4 h
- AUC [1, 6]: 660 ng·h/mL
- Tmax [1, 6]: 2 h
- Median PFS [2]: 15 weeks
- overall survival (OS) [2]: 61 weeks
- effect of afatinib on letrozole exposure ([3]; letrozole trough and 2-h post-dose plasma concentrations, screening period vs afatinib treatment period): no effect
- ErbB3 transphosphorylation (ErbB3): inhibits ErbB3 transphosphorylation

SMILES: CC(C)(C#N)c1cc(Cn2cncn2)cc(C(C)(C)C#N)c1 [Anastrozole]
- Median PFS (independent assessment) (ER/PgR/HER2-positive MBC): 2.4 (independent assessment) months

SMILES: N#Cc1ccc(C(c2ccc(C#N)cc2)n2cncn2)cc1 [Letrozole]
- AUC ([3]; human, plasma, oral, 2.5 mg, read-out: geometric mean AUCtau,ss): 2420 ng·h/mL
- Cmax ([3]; human, plasma, oral, 2.5 mg, read-out: geometric mean Cmax,ss): 135 ng/mL
- Grade ≥3 bone pain (ER/PgR-positive MBC; [7]): Bone pain 6%
- Median PFS (ER/PgR-positive MBC; [7]): 15.2 months
- Median PFS (ER/PgR-positive MBC; ER/PgR/HER2-positive MBC, first-line): 3.3 months
- Grade ≥3 bone pain (ER/PgR-positive MBC; ER/PgR/HER2-positive MBC): 7%
- Grade ≥3 dyspnea (ER/PgR-positive MBC; ER/PgR/HER2-positive MBC): 7%

SMILES: CC/C(=C(\c1ccccc1)c1ccc(OCCN(C)C)cc1)c1ccccc1 [Tamoxifen]
- Clinical benefit rate [4]: Clinical benefit rate = 42%
